Source: US8318780B2 (Intermune, Inc., priority 2009, dated 2012)

How the values were obtained:
[1] = Phase 1 open-label study of the impact of fluvoxamine on the pharmacokinetics of pirfenidone in healthy subjects; conditions: for Ratio of Day 11 AUC0-∞ to Day 1 AUC0-∞, Mean (SD) / Ratio of Day 11 AUC0-∞ to Day 1 AUC0-∞, Median (25th-75th): Day 11 with fluvoxamine vs Day 1 without; for AUC0-∞, Mean (SD) / AUC0-∞, Median (25th-75th): single 801-mg dose of pirfenidone, healthy subjects, n = 51, plasma
Source text: Study Design. The study was a Phase 1, open-label, parallel-group study in healthy subjects. Fifty-four subjects were to be enrolled in two groups, consisting of 27 subjects who were smokers (Group 1) and 27 subjects who were nonsmokers (Group 2). […] Each group (smokers and nonsmokers) was to include a minimum of nine females and nine males, and attempts were to be made to enroll equal numbers of each sex in each group.

CYP1A2 = biological target: T1, CYP1A2 (Homo sapiens, UniProt P05177); test: In vitro metabolism of pirfenidone by CYP isoforms; type: in vitro ADME
T1 sequence (P05177 1-516): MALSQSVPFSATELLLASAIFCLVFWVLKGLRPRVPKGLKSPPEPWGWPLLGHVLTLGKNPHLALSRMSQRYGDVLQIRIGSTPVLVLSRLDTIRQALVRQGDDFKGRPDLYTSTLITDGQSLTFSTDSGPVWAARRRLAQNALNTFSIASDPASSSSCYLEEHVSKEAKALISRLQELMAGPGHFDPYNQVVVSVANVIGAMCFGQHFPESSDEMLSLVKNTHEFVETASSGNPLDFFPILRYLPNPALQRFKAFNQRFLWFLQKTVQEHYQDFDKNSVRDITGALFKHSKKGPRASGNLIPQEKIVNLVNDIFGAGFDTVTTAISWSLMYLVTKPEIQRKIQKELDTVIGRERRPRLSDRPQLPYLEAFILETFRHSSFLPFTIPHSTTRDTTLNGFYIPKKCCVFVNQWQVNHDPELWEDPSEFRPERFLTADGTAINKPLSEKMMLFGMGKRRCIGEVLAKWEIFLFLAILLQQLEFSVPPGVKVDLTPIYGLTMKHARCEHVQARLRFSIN

[2] = system: multiple other CYPs (1A1, 2A6, 2B6, 2C8, 2C9, 2C18, 2C19, 2D6, 2E1, 2J2, 3A4, 3A5, 4A11, and 4F2); test: In vitro metabolism of pirfenidone by CYP isoforms; type: in vitro ADME; conditions: each isoform
Source text: There are no unique human metabolites.

[3] = Study Day 11: Post-Fluvoxamine (fluvoxamine Days 2-11)

Ratio of Cmax on Day 11 to the Cmax on Day 1, mean (95% CI) ([1]; Day 11 post-fluvoxamine vs Day 1 pre-fluvoxamine, all subjects) | Effect of fluvoxamine co-administration on AUC0-∞ (significance, paired t-test) ([1]; Day 11 vs Day 1) | Ratio of Day 11 AUC0-∞ to Day 1 AUC0-∞, Mean (SD) ([1]; Nonsmokers, N 25) | Ratio of Day 11 AUC0-∞ to Day 1 AUC0-∞, Median (25th-75th) ([1]; Nonsmokers, N 25) | Ratio of Day 11 AUC0-∞ to Day 1 AUC0-∞, Mean (SD) ([1]; Smokers, N 26) | Ratio of Day 11 AUC0-∞ to Day 1 AUC0-∞, Median (25th-75th) ([1]; Smokers, N 26) | AUC0-∞, Mean (SD) ([1]; Study Day 1: Pre-Fluvoxamine) | AUC0-∞, Median (25th-75th) ([1]; Study Day 1: Pre-Fluvoxamine) | AUC0-∞, Mean (SD) [1, 3] | AUC0-∞, Median (25th-75th) [1, 3] | SMILES | Share of pirfenidone metabolism by CYP1A2 (CYP1A2) | Share of pirfenidone metabolism by each other CYP [2] [%]
0.369 (0.349-0.390) | not a statistically significant effect | 1.05 (0.114) | 1.03 (0.978-1.11) | 1.12 (0.0951) | 1.13 (1.04-1.19) | 29.3 (8.22) mg · hr/L | 26.9 (22.0-33.7) mg · hr/L | 31.7 (8.96) mg · hr/L | 29.4 (25.4-36.5) mg · hr/L | O=C(O)c1ccc(=O)n(-c2ccccc2)c1 [5-Carboxy-Pirfenidone, 5 carboxy-pirfenidone] |  | 
 |  |  |  |  |  |  |  |  |  | Cc1ccc(=O)n(-c2ccccc2)c1 [Pirfenidone, 5-methyl-1-phenyl-2-(1H)-pyridone] | approx 48% | < 13
